Consider two compounds from patent US11793772B2, “Pharmaceutical composition comprising THA as active ingredient for treating breast cancer” (KOREA UNITED PHARM. INC., priority 2016, dated 2023).

The subject of series [1] is MDA-MB-468 cells. As to the kind of experiment: Cell proliferation inhibitory activity per human breast cancer cell line, MDA-MB-468. Type of series: cell-based. To be noted: as treatment amount increased, FIG. 10B. The protocol: (§1) To measure cell proliferation, SKBR3, T47D, HCC1428, MDA-MD-453, MDA-MB-231, MDA-MB-468, HCC38, HCC70, and HCC1937 cells were plated in respective 96-well dishes (5×10^3 cells/well). For cell stabilization, these cells were incubated in a cell incubator at 36.5° C. for 24 hours, and then treated with a drug, and the number of live cells was measured using an IncuCyte ZOOM live cell analysis system (Essen Bioscience, Ann Arbor, Mich., USA) at intervals of 4 hours.

The test system of series [2] is TAMR-MCF-7 cells. As to the kind of experiment: Real-time cell proliferation assay (IncuCyte ZOOM), TAMR-MCF-7. It counts as cell-based, human. As to conditions: TAMR-MCF-7 tamoxifen-resistant breast cancer cells; FIG. 2, FIG. 3. The protocol:
(§2) An MCF-7 cell line was sub-cultured in high glucose Dulbeccos Modified Eagle's Medium (DMEM) containing 10% fetal bovine serum, 50 U/ml of penicillin, and 50 μg/ml of streptomycin in an incubator supplied with 5% CO2 at 37° C. to be used for experiments. A TAMR-MCF-7 cell line was cultured in high glucose Dulbeccos Modified Eagle's Medium (DMEM) containing 10% charcoal-stripped fetal bovine serum, 3 μM 4-OH-tamoxifen (Sigma-Aldrich, Mo., USA), 50 U/ml of penicillin, and 50 μg/ml of streptomycin.
(§3) To measure cell proliferation, cells were plated in a 96-well dish (5×10^3 cells/well). After drug treatment, the number of live cells was measured using an IncuCyte ZOOM live cell analysis system (Essen Bioscience, Ann Arbor, Mich., USA) at intervals of 4 hours.
(§4) Tamoxifen-resistant breast cancer cells (TAMR-MCF-7) and/or control breast cancer cells (MCF-7) were treated with 2,4,6-trihydroxyacetophenone (THA), and then it was confirmed whether Plk1 activity and cell proliferation were inhibited, using the method of Example 1.

Series [3] has as its system T47D cells. As to the kind of experiment: Cell proliferation inhibitory activity per human breast cancer cell line, T47D. Type of series: cell-based. As to conditions: as treatment amount increased, FIG. 10A. As for the experimental part: as §1
The subject of series [4] is TAMR-MCF-7 cells. As to the kind of experiment: Tamoxifen-resistant breast cancer cell xenograft mouse model. It counts as in vivo, BALB/c-nu mice. The protocol:
In all experiments, 6-week-old female BALB/c-nu mice were raised for 1 week at the Research Center for Animal Experiments in the College of Pharmacy of the Seoul National University at a humidity of 55±5% and a temperature of 22±2° C. and under controlled ventilation conditions and adapted to the environment, and then used in the experiments according to randomized block design, and light/dark cycles were adjusted to 12 hours.
Animal experiments were carried out in accordance with the Experimental Animals Ethics Guidelines. TAMR-MCF-7 cells (5×10^6 cells) were transdermally injected into the left mammary gland of nude mice, and tumor sizes were measured using a caliper twice a week. Tumor volume was calculated by the following formula: Tumor volume=length×width^2. Five weeks after cell transplantation, the mice were euthanized using carbon dioxide gas and the tumors were extracted and weighed.
THA was intraperitoneally administered to a tamoxifen-resistant breast cancer cell-transplanted mouse model every day for 2 weeks at a dose of 6 mg/kg based on a dose known to be effective for bile secretion in the liver. Tumor sizes and weights were measured twice a week during the administration period, and after administration was completed, tumors were extracted, and then the extracted tumor tissues were weighed. PCNA, which is a cell proliferative index, and TUNEL, which is an apoptotic index, were evaluated in the tumor tissues by immunohistochemistry staining, and some tissues were pulverized to quantify cdc25c, which is a downstream signal of Plk1, as a Plk1 activity index, and an increase or decrease in cdc25c expression was confirmed by western blotting.
In addition, THA was administered to a tamoxifen-resistant breast cancer cell-transplanted mouse model at a dose of 10 mg/kg, 30 mg/kg, or 100 mg/kg using an oral zonde needle every day for 2 weeks.

The subject of series [5] is MDA-MB-231 cells. As to the kind of experiment: Cell proliferation inhibitory activity per human breast cancer cell line, MDA-MB-231. It counts as cell-based. As to conditions: as treatment amount increased, FIG. 10B. The protocol: as §1
Series [6] has as its system MCF-7 cells. As to the kind of experiment: Real-time cell proliferation assay (IncuCyte ZOOM), MCF-7. It counts as cell-based, human. As to conditions: MCF-7 normal (control) breast cancer cells; FIG. 2. As for the experimental part: as §2, §3, §4
Series [7] deals with SKBR3 cells. As to the kind of experiment: Cell proliferation inhibitory activity per human breast cancer cell line, SKBR3. It counts as cell-based. To be noted: as treatment amount increased, FIG. 10A. As for the experimental part:
as §1

Series [8] concerns HCC1428 cells. As to the kind of experiment: Cell proliferation inhibitory activity per human breast cancer cell line, HCC1428. To be noted: as treatment amount increased, FIG. 10A. Type of series: cell-based. The protocol: as §1
Series [9] has as its system HCC70 cells. As to the kind of experiment: Cell proliferation inhibitory activity per human breast cancer cell line, HCC70. Type of series: cell-based. As to conditions: as treatment amount increased, FIG. 10C. The protocol:
as §1

Series [10] deals with TAMR-MCF-7 cells. As to the kind of experiment: Cell cycle analysis by flow cytometry. Type of series: cell-based, human. To be noted: FIG. 4, FIG. 5. As for the experimental part:
To measure the cell cycle distribution, cells were plated in a 100 mm dish (5×10^5 cells/well). The cells were fixed with PBS at 4° C., refrigerated in 70% EtOH at 4° C., and cultured for 24 hours. After removing the 70% EtOH, the cells were stained with propidium iodide (PI)/Triton X-100/DNAse-free RNAse A at 37° C. for 15 minutes. 20,000 cells per experimental group were analyzed using an FACS-Calibur™ (BD Biosciences, CA, USA) machine.

Series [11] relates to MDA-MD-453 cells. As to the kind of experiment: Cell proliferation inhibitory activity per human breast cancer cell line, MDA-MD-453. It counts as cell-based. To be noted: as treatment amount increased, FIG. 10B. The protocol: as §1
In series [12] the test system is HCC38 cells. As to the kind of experiment: Cell proliferation inhibitory activity per human breast cancer cell line, HCC38. As to conditions: as treatment amount increased, FIG. 10C. It counts as cell-based. The protocol:
as §1

Series [13] has as its system TAMR-MCF-7 cells. As to the kind of experiment: Real-time apoptosis analysis with caspase-3/7 fluorescent substrate. It counts as cell-based, human. As to conditions: caspase-3/7 selective fluorescent substrate, FIG. 6. As for the experimental part: To measure apoptosis, cells were plated in a 96-well dish (5×10^3 cells/well). The cells were pre-treated with the IncuCyte ZOOM™ 96-well Caspase-3/7 apoptosis assay reagent for 3 hours and treated with a drug, and then the degree of fluorescence expression was measured using an IncuCyte ZOOM™ live cell analysis system (Essen Bioscience, Ann Arbor, Mich., USA) at intervals of 4 hours.

Series [14] has as its system human breast cancer cell line panel. As to the kind of experiment: THA reactivity according to Plk1 expression differences per human breast cancer cell line. Type of series: cell-based. To be noted: 11 breast cancer cell lines classified as low, medium, high Plk1 expression; FIGS. 11A and 11B.
The test system of series [15] is HCC1937 cells. As to the kind of experiment: Cell proliferation inhibitory activity per human breast cancer cell line, HCC1937. It counts as cell-based. As to conditions: as treatment amount increased, FIG. 10C. The protocol:
as §1

In series [16] the test system is Polo-like kinase 1 (Plk1). As to the kind of experiment: Western blotting and immunocytochemistry of Plk1 downstream signals (cdc25c, cyclin B1) in tamoxifen-resistant breast cancer cells. It counts as cell-based, human. As for the experimental part: Sodium dodecyl sulfate-polyacrylamide gel electrophoresis (SDS-PAGE) was performed using a gel electrophoresis apparatus (Mighty Small SE250, Hoefer Scientific Instruments, San Francisco). A cell lysate fraction was diluted in a sample dilution buffer [63 mM Tris (pH 6.8), 10% glycerol, 2% SDS, 0.0013% bromophenol blue, and 5% β-mercaptoethanol], and then electrophoresis was performed thereon in an electrode buffer (15 g of Tris, 72 g of […], and 5 g of SDS included in a 1 L solution) using a 8% to 12% gel. The electrophoresed gel was used to transfer proteins to a nitrocellulose membrane at 190 mAmps for 70 minutes in a transfer buffer (25 mM Tris, 192 mM […], and 20% v/v methanol (pH 8.3)) using a transfer electrophoresis apparatus. The nitrocellulose membrane was reacted with a primary antibody, and then reacted with horseradish peroxidase-conjugated goat anti-rabbit IgG and horseradish peroxidase-conjugated goat anti-mouse IgG as secondary antibodies for 6 hours, followed by color development using an ECL detection system (ECL chemiluminescence system, Amersham, Gaithersberg, Mass.).
To measure fluorescence expression, cells were plated in a 6-well dish (5×10^5 cells/well). Fluorescence was conjugated to cdc25c and cyclin B1 antibodies using SiteClick™ Qdot antibody labeling kits (Thermo Scientific, IL, USA), and fluorescence-conjugated cdc25c and cyclin B1 antibodies were treated in a 6-well dish, and then expression was observed through a fluorescence microscope.
as §4

The mark [17] stands for this setting: intraperitoneal 6 mg/kg, immunohistochemistry, FIGS. 7D and 7E.
Setting [18] is: tamoxifen-resistant breast cancer cells, western blotting and immunocytochemistry, FIG. 1.

Structures are written as SMILES.

For the compound `CC(=O)c1c(O)cc(O)cc1O` [THA, 2,4,6-trihydroxyacetophenone], the cell proliferation result in series [1], in series [3], in [5], in series [7], in series [8] and in [9] was “cell proliferation was inhibited” in each case. The cell proliferation result in series [11], in series [12] and in [15] was “cell proliferation was inhibited” in each case. Moreover, the “inhibition of cell proliferation” value in [2] is “more strongly inhibited cell proliferation”; in series [6], “inhibited cell proliferation”. Moreover, the tumor size result in [4] (intraperitoneal 6 mg/kg every day for 2 weeks, compared to control, FIG. 7A) was “significantly reduced”; in [4] (oral 10 mg/kg, 30 mg/kg, or 100 mg/kg every day for 2 weeks, compared to control, FIG. 7G), “significantly reduced”. Moreover, the tumor weight entry in series [4] (intraperitoneal 6 mg/kg every day for 2 weeks, compared to control, FIG. 7C) was “significantly reduced”. Besides, the “body weight of each mouse” value in [4] (intraperitoneal 6 mg/kg every day for 2 weeks, FIG. 7B) is listed as “maintained at a similar level”; in series [4] (oral 10 mg/kg, 30 mg/kg, or 100 mg/kg every day for 2 weeks, FIG. 7I) it was “maintained at a similar level”. The “PCNA, cell proliferative index, in tumor tissue” value in series [4] (setting [17]) was “reduced”. In addition, the “TUNEL, apoptotic index, in tumor tissue” value in [4] (setting [17]) is listed as “significantly increased”. Besides, the “cdc25c expression in tumor tissue (Plk1 activity index)” value in series [4] (intraperitoneal 6 mg/kg, western blotting, FIG. 7F) was “significantly inhibited”. The cell cycle inhibition result in series [10] was “S phase arrest”. In addition, the apoptotic index entry in series [13] is “significantly increased”. The “selectivity according to Plk1 expression (correlation between Plk1 expression and IC50 of each cell line)” value in series [14] is “selectively acts on breast cancer cells with high Plk1 expression”. The Plk1 inhibitory effect result in series [16] (concluded from cdc25c decrease and cyclin B1 increase) is given as “had a Plk1 inhibitory effect”. Moreover, the “compensatory cyclin B1 expression” value in [16] (setting [18]) is “increased compensatory cyclin B1 expression”. Moreover, the “expression of cdc25c, downstream signal of Plk1” value in series [16] (setting [18]) is given as “reduced the expression of cdc25c”.
For the compound `CC[C@@H]1C(=O)N(C)c2cnc(Nc3ccc(C(=O)NC4CCN(C)CC4)cc3OC)nc2N1C1CCCC1` [BI-2536, reference compound], the cell proliferation result in series [1], in [3], in [5], in series [7], in [8] and in series [9] was “cell proliferation was inhibited” in each case. The cell proliferation entry in series [11], in series [12] and in series [15] was “cell proliferation was inhibited” in each case.
